# Results reported in publication PMC8811472, “Systematic In Vitro Evaluation of a Library of Approved and Pharmacologically Active Compounds for the Identification of Novel Candidate Drugs for KMT2A-Rearranged Leukemia” (Frontiers in Oncology, 2022).
# Tests used:
# KOPN-8 cells = test: 72-hour resazurin-based cytotoxicity assay, KOPN-8; parameters: species or system human; conditions: KOPN-8, KMT2A-r t(11;19), infant pre-B cell ALL
# Protocol: (§1) All cell lines used in this study were mycoplasma-free and have been authenticated using STR profiling. Cells were cultured as previously described ([7], [8]). Characteristics of the leukemia cell lines used in this study are described in Supplementary Table 1 . Peripheral blood mononuclear cells from healthy donors were purchased from Australian Red Cross.
# (§2) The cytotoxicity of drugs was assessed through resazurin-based assays and the inhibitory concentration resulting in 50% reduction of cell survival relative to control (IC50) was calculated as previously described ([7]). In synergy studies, cells were exposed to a dilution series of compounds, as single agents or in combination, in resazurin-based assays (72 hours) as described ([8]–[10]). The occurrence of synergy was determined with the Bliss Independence model as previously described ([8]–[10]). Bliss Prediction curves indicated the predicted percentage viability of the cells when exposed to the combination of compounds if both compounds work additively together. Synergy was visualised as the presence of a lower cell viability upon combination of two compounds compared to the viability predicted based on the presence of an additive effect of the compounds (i.e., the viability curve of the combination runs below the Bliss Prediction curve). […]
# MV4;11 cells = test: 72-hour resazurin-based cytotoxicity assay, MV4;11; assay type: cell-based, human; conditions: MV4;11, KMT2A-r t(4;11), childhood AML
# Protocol: as §1, §2
# LNCaP cells = test: 72-hour resazurin-based cytotoxicity assay, LNCaP; assay type: cell-based, human; conditions: prostate carcinoma
# Protocol: as §1, §2
# PER-703 cells = test: 72-hour resazurin-based cytotoxicity assay, PER-703; assay type: cell-based, human; conditions: PER-703, KMT2A-r t(1;11), infant ALL derived
# Protocol: as §1, §2
# [1] = tested on: cleavage of PARP and caspase-3; test: Western blot of apoptotic markers; assay type: cell-based, human; conditions: sensitive KMT2A-r leukemia cells, not in KMT2A-wt
# Protocol: Western blotting experiments were performed as previously described ([7]). Antibodies used are listed in Supplementary Table 2 . Actin was used as a loading control.
# PER-485 cells [2] = test: 72-hour resazurin-based cytotoxicity assay, PER-485; assay type: cell-based, human; conditions: PER-485, KMT2A-r t(4;11), infant ALL derived
# Protocol: as §1
# (§3) The cytotoxicity of drugs was assessed through resazurin-based assays and the inhibitory concentration resulting in 50% reduction of cell survival relative to control (IC50) was calculated as previously described ([7]). In synergy studies, cells were exposed to a dilution series of compounds, as single agents or in combination, in resazurin-based assays (72 hours) as described ([8]–[10]). The occurrence of synergy was determined with the Bliss Independence model as previously described ([8]–[10]). Bliss Prediction curves indicated the predicted percentage viability of the cells when exposed to the combination of compounds if both compounds work additively together. Synergy was visualised as the presence of a lower cell viability upon combination of two compounds compared to the viability predicted based on the presence of an additive effect of the compounds (i.e., the viability curve of the combination runs below the Bliss Prediction curve). The percentage of apoptotic cells was assessed by annexin V and 7-Aminoactinomycin D (7-AAD) (BD Biosciences, Australia) flow cytometry as previously described ([7]).
# THP-1 cells = test: 72-hour resazurin-based cytotoxicity assay, THP-1; assay type: cell-based, human; conditions: THP-1, KMT2A-r t(9;11), infant AML
# Protocol: as §1, §3
# 27/87 cells = test: 72-hour resazurin-based cytotoxicity assay, 27/87; assay type: cell-based, human; conditions: 27/87, endometrioid ovarian cancer
# Protocol: as §1, §2
# RS4;11 cells = test: 72-hour resazurin-based cytotoxicity assay, RS4;11; parameters: species or system human; conditions: RS4;11, KMT2A-r t(4;11), pre-B cell ALL
# Protocol: as §1, §3
# MOLM-13 cells = test: 72-hour resazurin-based cytotoxicity assay, MOLM-13; assay type: cell-based, human; conditions: MOLM-13, KMT2A-r t(9;11), AML
# Protocol: as §1, §3
# KP-MO-TS cells = test: 72-hour resazurin-based cytotoxicity assay, KP-MO-TS; assay type: cell-based, human; conditions: CALM-AF10, AML
# Protocol: as §1, §2
# [3] = tested on: NR5A1 target genes ENO1 and PKM; KMT2A target genes; test: qRT-PCR of gene expression after treatment; assay type: cell-based, human; conditions: three hours
# Protocol: Total RNA was isolated using a Qiagen RNeasy kit and cDNA synthesized using the iScript cDNA Synthesis Kit (BioRad). Quantitative PCR was run and analyzed on Applied Biosystem’s QuantStudio5 Real-Time PCR Detection System, using Taqman gene expression assays for genes NR5A1 (Hs00610436_m1), GUSB (Hs99999908_m1) and HPRT (Hs99999909_m1) Relative expressions were determined as previously described ([7]).
# H460 cells = test: 72-hour resazurin-based cytotoxicity assay, H460; assay type: cell-based, human; conditions: H460, lung carcinoma
# Protocol: as §1, §2
# [4] = Mouse liver microsomal stability assay; assay type: in vitro ADME; conditions: mouse liver microsomes
# From the text: Compound half-life was estimated by mouse liver microsomal stability assays as described ([10]).
# KELLY cells = test: 72-hour resazurin-based cytotoxicity assay, KELLY; assay type: cell-based, human; conditions: neuroblastoma
# Protocol: as §1, §2
# HEY cells = test: 72-hour resazurin-based cytotoxicity assay, HEY; assay type: cell-based, human; conditions: ovarian carcinoma
# Protocol: as §1, §2
# WI-38 cells = test: 72-hour resazurin-based cytotoxicity assay, WI-38; assay type: cell-based, human; conditions: WI-38, non-malignant, normal lung
# Protocol: as §1, §2
# BE(2)C cells = test: 72-hour resazurin-based cytotoxicity assay, BE(2)C; assay type: cell-based, human; conditions: childhood neuroblastoma
# Protocol: as §1, §2
# KMT2A-wt REH cells = test: Synergy study (Bliss Independence model), REH; assay type: cell-based, human; conditions: 72 h
# Protocol: as §3
# PER-826 cells = test: 72-hour resazurin-based cytotoxicity assay, PER-826; assay type: cell-based, human; conditions: PER-826, KMT2A-r complex t(11;19), infant ALL
# Protocol: as §1, §2
# PER-490 cells = test: 72-hour resazurin-based cytotoxicity assay, PER-490; assay type: cell-based, human; conditions: PER-490, KMT2A-r t(4;11), infant ALL
# Protocol: as §1, §2
# PER-485 cells [5] = test: Synergy study (Bliss Independence model), PER-485; assay type: cell-based, human; conditions: PER-485, 72 h
# Protocol: as §3
# Jurkat cells = test: 72-hour resazurin-based cytotoxicity assay, Jurkat; parameters: species or system human; conditions: KMT2A-wt, childhood T-cell ALL
# Protocol: as §1, §3
# MOLM13 cells = test: Synergy study (Bliss Independence model), MOLM13; assay type: cell-based, human; conditions: MOLM13, 72 h
# Protocol: as §3
# SEMK2 cells = test: 72-hour resazurin-based cytotoxicity assay, SEMK2; parameters: species or system human; conditions: SEMK2, KMT2A-r t(4;11), pre-B cell childhood ALL
# Protocol: as §1, §3
# CEM cells = test: 72-hour resazurin-based cytotoxicity assay, CEM; parameters: species or system human; conditions: KMT2A-wt, childhood T-cell ALL
# Protocol: as §1, §3
# MCF-7 cells = test: 72-hour resazurin-based cytotoxicity assay, MCF-7; assay type: cell-based, human; conditions: MCF-7, breast adenocarcinoma
# Protocol: as §1, §2
# MRC-5 cells = test: 72-hour resazurin-based cytotoxicity assay, MRC-5; assay type: cell-based, human; conditions: MRC-5, non-malignant, normal lung
# Protocol: as §1, §3
# [6] = tested on: peripheral blood mononuclear cells from healthy donors; test: 72-hour resazurin-based viability assay, PBMC from healthy donors; assay type: cell-based, human; conditions: for IC50: PBMC, 72 h resazurin
# Protocol: as §1, §3
# PER-785 cells = test: 72-hour resazurin-based cytotoxicity assay, PER-785; assay type: cell-based, human; conditions: PER-785, KMT2A-r t(4;11), infant ALL
# Protocol: as §1, §2
# REH cells = test: 72-hour resazurin-based cytotoxicity assay, REH; parameters: species or system human; conditions: KMT2A-wt, pre-B cell ALL
# Protocol: as §1, §3
# U937 cells = test: 72-hour resazurin-based cytotoxicity assay, U937; assay type: cell-based, human; conditions: U937, CALM-AF10, AML
# Protocol: as §1, §2
# [7] = tested on: KMT2A-r cells (PER-485 and THP-1); test: Annexin V positive cells, KMT2A-r cells; assay type: cell-based, human; conditions: as early as 6 hours post-exposure; IC50 doses
# Protocol: as §3
structure (smiles),measurement,setting,value
CCOC(=O)C(C)Oc1cccc2c(=O)n(CC(=O)Nc3ccc4c(c3)OCCO4)ccc12 (centres unmarked) [SID7969543],IC50,KOPN-8 cells,> 20 µM
same,IC50,MV4;11 cells,2500 nM
same,IC50,LNCaP cells,> 20 µM
same,IC50,PER-703 cells,4.9 µM
same,cleavage of PARP and caspase-3,[1],increased cleavage
same,IC50,PER-485 cells [2],1400 nM
same,IC50,THP-1 cells,2600 nM
same,IC50,27/87 cells,> 20 µM
same,IC50,RS4;11 cells,> 20 µM
same,IC50,MOLM-13 cells,1000 nM
same,IC50,KP-MO-TS cells,1900 nM
same,"expression of genes not regulated by NR5A1 (HOXA9, HOXA10, MEIS1, MYB)",[3]; KMT2A-r cell lines,remained unchanged
same,expression of NR5A1 target genes ENO1 and PKM,"[3]; sensitive KMT2A-r cell lines, before induction of apoptosis",significantly decreased
same,IC50,H460 cells,> 20 µM
same,half-life in microsomal stability assays,[4],short half-life
same,IC50,KELLY cells,> 20 µM
same,IC50,HEY cells,> 20 µM
same,IC50,WI-38 cells,> 20 µM
same,IC50,BE(2)C cells,> 20 µM
same,combination effect (Bliss),KMT2A-wt REH cells; with cytarabine,No synergy
same,combination effect (Bliss),KMT2A-wt REH cells; with daunorubicin,No synergy
same,combination effect (Bliss),KMT2A-wt REH cells; with etoposide,No synergy
same,IC50,PER-826 cells,> 20 µM
same,IC50,PER-490 cells,1900 nM
same,combination effect (Bliss),PER-485 cells [5]; with cytarabine,synergy
same,combination effect (Bliss),PER-485 cells [5]; with daunorubicin,synergy
same,combination effect (Bliss),PER-485 cells [5]; with etoposide,synergy
same,combination effect (Bliss),PER-485 cells [5]; with mitoxantrone,additive
same,combination effect (Bliss),PER-485 cells [5]; with topotecan,additive
same,IC50,Jurkat cells,> 20 µM
same,combination effect (Bliss),MOLM13 cells; with cytarabine,synergy
same,combination effect (Bliss),MOLM13 cells; with daunorubicin,synergy
same,combination effect (Bliss),MOLM13 cells; with etoposide,additive
same,combination effect (Bliss),MOLM13 cells; with mitoxantrone,additive
same,combination effect (Bliss),MOLM13 cells; with topotecan,additive
same,IC50,SEMK2 cells,> 20 µM
same,IC50,CEM cells,> 20 µM
same,IC50,MCF-7 cells,> 20 µM
same,IC50,MRC-5 cells,> 20 µM
same,IC50,[6]; Donor 1,> 20 µM
same,IC50,[6]; Donor 2,> 20 µM
same,IC50,[6]; Donor 3,> 20 µM
same,viability of peripheral blood mononuclear cells (PBMC),"[6]; healthy donors, doses that inhibit KMT2A-r leukemia cells",did not significantly impact the viability
same,IC50,PER-785 cells,5 µM
same,IC50,REH cells,> 20 µM
same,IC50,U937 cells,1900 nM
same,percentage of annexin V-positive KMT2A-r cells,[7],significantly increased
